Reference: ChEMBL document CHEMBL5291721, “A preclinical secondary pharmacology resource illuminates target-adverse drug reaction associations of marketed drugs” (Nat Commun, 2023)

Legend:
Prothrombin = Prothrombin (Homo sapiens, UniProt P00734); type: functional
[1] = target: T1, Alpha-2A adrenergic receptor (Homo sapiens, UniProt P08913)
T1 sequence (P08913 whole entry): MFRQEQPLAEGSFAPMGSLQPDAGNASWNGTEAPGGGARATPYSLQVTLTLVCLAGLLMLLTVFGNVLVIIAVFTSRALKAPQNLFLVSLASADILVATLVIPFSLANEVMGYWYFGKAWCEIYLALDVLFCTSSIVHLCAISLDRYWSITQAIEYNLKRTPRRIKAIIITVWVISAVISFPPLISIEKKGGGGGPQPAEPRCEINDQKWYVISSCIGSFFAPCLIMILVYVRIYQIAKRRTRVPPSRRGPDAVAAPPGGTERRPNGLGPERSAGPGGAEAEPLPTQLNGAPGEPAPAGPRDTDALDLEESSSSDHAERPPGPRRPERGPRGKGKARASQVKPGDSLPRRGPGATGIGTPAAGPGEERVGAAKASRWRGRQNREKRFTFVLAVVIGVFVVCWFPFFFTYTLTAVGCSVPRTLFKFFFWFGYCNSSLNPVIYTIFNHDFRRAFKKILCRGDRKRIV

[2] = target: T2, Muscarinic acetylcholine receptor M1 (Homo sapiens, UniProt P11229); type: functional, cell-based
T2 sequence (P11229 whole entry): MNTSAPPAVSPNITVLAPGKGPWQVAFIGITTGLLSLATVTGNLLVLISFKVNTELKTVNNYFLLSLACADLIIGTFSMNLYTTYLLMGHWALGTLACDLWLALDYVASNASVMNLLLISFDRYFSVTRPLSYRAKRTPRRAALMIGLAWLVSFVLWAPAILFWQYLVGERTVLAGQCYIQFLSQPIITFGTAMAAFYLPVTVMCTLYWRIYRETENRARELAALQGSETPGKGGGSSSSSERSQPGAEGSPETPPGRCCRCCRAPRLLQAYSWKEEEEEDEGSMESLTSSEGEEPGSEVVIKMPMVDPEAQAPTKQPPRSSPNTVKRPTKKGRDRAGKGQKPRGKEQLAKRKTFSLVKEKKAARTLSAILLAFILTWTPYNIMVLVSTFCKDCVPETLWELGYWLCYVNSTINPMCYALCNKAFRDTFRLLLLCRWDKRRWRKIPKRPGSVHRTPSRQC

Thromboxane A2 receptor = target: T3, Thromboxane A2 receptor (Homo sapiens, UniProt P21731); type: functional, cell-based
T3 sequence (P21731 whole entry): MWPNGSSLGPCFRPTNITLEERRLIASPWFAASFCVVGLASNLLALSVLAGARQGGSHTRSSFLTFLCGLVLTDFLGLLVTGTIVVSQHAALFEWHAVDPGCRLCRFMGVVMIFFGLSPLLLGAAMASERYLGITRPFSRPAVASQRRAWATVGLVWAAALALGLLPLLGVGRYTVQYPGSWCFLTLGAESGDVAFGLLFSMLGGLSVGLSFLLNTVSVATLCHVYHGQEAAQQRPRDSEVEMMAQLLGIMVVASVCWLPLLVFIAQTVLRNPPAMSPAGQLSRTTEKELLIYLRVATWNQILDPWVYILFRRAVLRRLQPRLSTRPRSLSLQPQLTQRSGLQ

[3] = target: T2, Muscarinic acetylcholine receptor M1; type: functional, cell-based; remark: listed apart in the source
[4] = target: Sodium-dependent serotonin transporter (Homo sapiens, UniProt P31645)
[5] = target: T4, 5-hydroxytryptamine receptor 1A (Homo sapiens, UniProt P08908)
T4 sequence (P08908 whole entry): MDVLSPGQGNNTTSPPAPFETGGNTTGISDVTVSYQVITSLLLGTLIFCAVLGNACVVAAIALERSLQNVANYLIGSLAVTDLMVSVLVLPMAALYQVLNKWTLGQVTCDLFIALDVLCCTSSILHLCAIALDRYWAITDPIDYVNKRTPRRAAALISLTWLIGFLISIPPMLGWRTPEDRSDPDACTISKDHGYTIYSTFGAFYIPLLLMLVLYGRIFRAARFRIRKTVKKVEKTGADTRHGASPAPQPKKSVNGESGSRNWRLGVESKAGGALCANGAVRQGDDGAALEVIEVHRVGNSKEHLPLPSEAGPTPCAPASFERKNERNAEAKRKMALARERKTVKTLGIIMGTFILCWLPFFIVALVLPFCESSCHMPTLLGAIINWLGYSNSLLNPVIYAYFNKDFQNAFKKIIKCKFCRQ

D(1A) dopamine receptor = D(1A) dopamine receptor (Homo sapiens, UniProt P21728)
[6] = target: T5, Amine oxidase [flavin-containing] A (Homo sapiens, UniProt P21397); type: functional
T5 sequence (P21397 whole entry): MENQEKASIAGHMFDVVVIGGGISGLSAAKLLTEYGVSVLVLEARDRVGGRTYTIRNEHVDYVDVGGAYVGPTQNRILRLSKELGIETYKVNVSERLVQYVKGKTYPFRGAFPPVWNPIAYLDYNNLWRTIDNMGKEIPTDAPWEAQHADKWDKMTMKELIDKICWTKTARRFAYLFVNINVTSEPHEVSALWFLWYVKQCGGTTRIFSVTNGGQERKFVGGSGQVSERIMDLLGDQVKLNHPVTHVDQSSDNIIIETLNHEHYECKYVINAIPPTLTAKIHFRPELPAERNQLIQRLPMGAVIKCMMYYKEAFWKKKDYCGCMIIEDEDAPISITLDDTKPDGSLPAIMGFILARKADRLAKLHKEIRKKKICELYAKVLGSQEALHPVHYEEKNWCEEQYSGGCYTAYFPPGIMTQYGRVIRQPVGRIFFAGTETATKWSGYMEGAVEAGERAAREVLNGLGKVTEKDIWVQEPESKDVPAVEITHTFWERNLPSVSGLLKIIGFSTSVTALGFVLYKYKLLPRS

[7] = target: T6, Alpha-1A adrenergic receptor (Homo sapiens, UniProt P35348); type: functional, cell-based
T6 sequence (P35348 whole entry): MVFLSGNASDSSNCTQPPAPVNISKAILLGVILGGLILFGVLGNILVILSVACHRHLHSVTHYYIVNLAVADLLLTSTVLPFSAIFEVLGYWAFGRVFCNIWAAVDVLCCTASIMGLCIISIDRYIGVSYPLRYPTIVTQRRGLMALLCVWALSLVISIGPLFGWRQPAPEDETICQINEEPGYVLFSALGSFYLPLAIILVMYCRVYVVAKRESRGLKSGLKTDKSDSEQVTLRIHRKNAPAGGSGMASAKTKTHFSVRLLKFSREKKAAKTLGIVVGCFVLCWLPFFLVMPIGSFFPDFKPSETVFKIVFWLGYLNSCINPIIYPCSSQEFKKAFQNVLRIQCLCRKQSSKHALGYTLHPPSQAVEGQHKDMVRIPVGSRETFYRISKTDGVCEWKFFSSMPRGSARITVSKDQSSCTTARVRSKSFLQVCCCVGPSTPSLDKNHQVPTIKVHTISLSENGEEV
Note: assay procedure not described here.

D(1A) dopamine receptor, sequence (P21728 whole entry): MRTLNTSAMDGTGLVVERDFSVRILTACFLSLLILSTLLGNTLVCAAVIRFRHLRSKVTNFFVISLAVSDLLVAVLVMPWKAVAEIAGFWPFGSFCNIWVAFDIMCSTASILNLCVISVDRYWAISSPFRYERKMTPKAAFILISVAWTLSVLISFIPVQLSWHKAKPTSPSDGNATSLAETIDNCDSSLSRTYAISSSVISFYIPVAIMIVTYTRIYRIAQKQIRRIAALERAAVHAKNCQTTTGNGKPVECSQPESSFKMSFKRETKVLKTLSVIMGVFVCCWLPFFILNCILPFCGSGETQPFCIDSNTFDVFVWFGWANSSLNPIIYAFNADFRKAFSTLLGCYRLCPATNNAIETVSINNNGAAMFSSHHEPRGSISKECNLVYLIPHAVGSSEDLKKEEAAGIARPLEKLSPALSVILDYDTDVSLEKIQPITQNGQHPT
Sodium-dependent serotonin transporter, sequence (P31645 whole entry): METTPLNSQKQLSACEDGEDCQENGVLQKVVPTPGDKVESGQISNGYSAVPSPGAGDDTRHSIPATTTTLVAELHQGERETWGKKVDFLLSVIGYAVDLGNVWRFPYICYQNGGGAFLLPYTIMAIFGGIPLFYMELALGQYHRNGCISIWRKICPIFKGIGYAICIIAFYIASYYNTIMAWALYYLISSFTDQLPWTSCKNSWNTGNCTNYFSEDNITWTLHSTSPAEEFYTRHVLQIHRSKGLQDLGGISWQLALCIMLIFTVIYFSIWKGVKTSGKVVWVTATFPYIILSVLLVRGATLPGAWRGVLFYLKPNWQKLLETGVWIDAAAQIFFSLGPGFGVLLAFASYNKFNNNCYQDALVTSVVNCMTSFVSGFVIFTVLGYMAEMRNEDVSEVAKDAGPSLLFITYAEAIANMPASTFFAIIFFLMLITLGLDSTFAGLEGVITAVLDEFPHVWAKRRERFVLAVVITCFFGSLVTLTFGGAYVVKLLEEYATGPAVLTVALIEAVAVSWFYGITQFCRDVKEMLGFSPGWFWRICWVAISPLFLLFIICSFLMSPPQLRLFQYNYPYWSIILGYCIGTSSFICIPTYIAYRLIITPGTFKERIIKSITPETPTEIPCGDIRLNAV

Row | SMILES | AC50 (Prothrombin) [µM] | AC50 [1] [µM] | AC50 [2] [µM] | AC50 (Thromboxane A2 receptor) [µM] | AC50 [3] [µM] | AC50 [4] [µM] | AC50 [5] [µM] | AC50 (D(1A) dopamine receptor) [µM] | AC50 [6] [µM] | AC50 [7] [µM]
1 | CC(C)(C)N1CCC(c2ccccc2)(c2ccccc2)CC1 [BUDIPINE] | > 30 | > 30 | 0.57 | > 30 | > 30 | > 30 | > 30 | > 30 | > 30 | > 30
2 | CC(=O)OCC(=O)[C@@]1(O)CC[C@H]2[C@@H]3CCC4=CC(=O)C=C[C@]4(C)[C@@]3(Cl)[C@@H](Cl)C[C@@]21C [DICHLORISONE ACETATE] | > 30 | > 30 | > 30 | > 30 | > 30 | > 30 | > 30 | > 30 | > 30 | > 30
3 | CC1=C(/C=C/C(C)=C/C=C/C(C)=C/C=C/C=C(C)/C=C/C=C(C)/C=C/C2=C(C)CCCC2(C)C)C(C)(C)CCC1 [BETA CAROTENE] | > 30 | > 30 | > 30 | > 30 | > 30 | > 30 | > 30 | > 30 | > 30 | > 30
4 | CCC(CC)(CC(=O)Nc1cccc(/C=C/c2nc(C3CCC3)cs2)c1)C(=O)O | > 30 | > 30 | > 3 | > 10 | > 10 | > 30 | > 30 | > 30 | > 30 | > 3
5 | O=C(O)c1ccccc1C(=O)Nc1ccc(S(=O)(=O)Nc2nccs2)cc1 [PHTHALYLSULFATHIAZOLE] | > 30 | > 30 | > 30 | > 30 | > 30 | > 30 | > 10 | > 30 | > 30 | > 30
6 | CC(C)(C)NCC(O)COc1cccc2c1SCCC2 (stereo not given) [TERTATOLOL] | > 30 | 6.6 | > 30 | > 30 | > 30 | 17.3 | 0.0569 | > 30 | > 30 | > 30
7 | CCN(CC)CCOC(=O)C(c1ccccc1)C1CCCCC1 (stereo not given) [DROFENINE] | > 30 | 24.1 | 0.0078 | > 30 | > 30 | > 30 | 2.71 | 13.7 | > 30 | 9.55
8 | N=c1ccn2c(n1)O[C@H]1[C@H](O)[C@@H](CO)O[C@H]12 [ANCITABINE] | > 30 | > 30 | > 30 | > 30 | > 30 | > 30 | > 30 | > 30 | > 30 | > 30
9 | CC[C@@H](C(N)=O)N1CCCC1=O | > 30 | > 30 | > 30 | > 30 | > 30 | > 30 | > 30 | > 30 | > 30 | > 30
10 | OC(c1ccccc1)(c1ccccc1)C12CC[N+](CCOCc3ccccc3)(CC1)CC2 | > 30 | > 30 | 0.0053 | > 30 | > 30 | 0.302 | > 30 | > 30 | > 30 | > 30
11 | OC(CCN1CCCCC1)(c1ccccc1)c1ccccc1 [PRIDINOL] | > 30 | > 30 | 0.0824 | > 30 | > 30 | > 30 | 29.8 | > 30 | > 30 | > 30
12 | NC1=NCC2c3ccccc3Cc3ccccc3N12 (stereo not given) [EPINASTINE] | > 30 | 0.253 | > 30 | > 30 | > 30 | 10.3 | 1.28 | 0.125 | > 30 | 2.53
